Source: patent publication US20260285850A1, “SUBSTITUTED OXAZOLIDINONES AND IMIDAZOLINONES AS HERBICIDES” (FMC CORPORATION, priority 2023, published 2026)

Legend:
Format in all cases: in vivo
[1] = system: barnyardgrass (Echinochloa crus-galli); test: Test A preemergence soil spray, visual injury rating 0-100; conditions: 10 days; for Barnyardgrass plant response rating: 31 g ai/ha, 0 to 100 scale; for Barnyardgrass plant response rating (0 to 100 scale): 125 g ai/ha, 0 = no effect, 100 = complete control
Excerpt: (§1) Seeds of plant species selected from barnyardgrass (Echinochloa crus-galli), blackgrass (Alopecurus myosuroides), corn (Zea mays), foxtail, giant (giant foxtail, Setaria faberi), green foxtail (Setaria viridis), goosegrass (Eleusine indica), kochia (Bassia scoparia), oat, wild (wild oat, Avena fatua), palmer (palmer amaranth, palmer pigweed, Amaranthus palmeri), ragweed (common ragweed, Ambrosia artemisiifolia), ryegrass, Italian (italian ryegrass, Lolium multiflorum), soybean (Glycine max) and wheat (Triticum aestivum) were planted into a blend of loam soil and sand and treated preemergence with a directed soil spray using test chemicals formulated in a non-phytotoxic solvent mixture which included a surfactant.
(§2) At the same time, plants selected from these crops and weed species and also galium (catchweed bedstraw, Galium aparine) and horseweed (Erigeron canadensis) were planted in pots containing the same blend of loam soil and sand and treated with postemergence applications of test chemicals formulated in the same manner. Plants ranged in height from 2 to 10 cm and were in the one- to two-leaf stage for the postemergence treatment. Treated plants and untreated controls were maintained in a greenhouse for 10 days, after which time all treated plants were compared to untreated controls and visually evaluated for injury. Plant response ratings, summarized in Table A, are based on a 0 to 100 scale where 0 is no effect and 100 is complete control. A dash (-) response means no test result.

[2] = system: blackgrass (Alopecurus myosuroides); test: as above; conditions: 10 days; for Blackgrass plant response rating: 31 g ai/ha, 0 to 100 scale; for Blackgrass plant response rating (0 to 100 scale): 125 g ai/ha, 0 = no effect, 100 = complete control
Excerpt: as §1, §2

corn (Zea mays) [3] = test: as above; conditions: 10 days; for Corn plant response rating: 31 g ai/ha, 0 to 100 scale; for Corn plant response rating (0 to 100 scale): 125 g ai/ha, 0 = no effect, 100 = complete control
Excerpt: as §1, §2

kochia (Bassia scoparia) [4] = test: as above; conditions: 10 days; for Kochia plant response rating: 31 g ai/ha, 0 to 100 scale; for Kochia plant response rating (0 to 100 scale): 125 g ai/ha, 0 = no effect, 100 = complete control
Excerpt: as §1, §2

[5] = system: oat, wild (wild oat, Avena fatua); test: as above; conditions: 10 days; for Oat, Wild plant response rating: 31 g ai/ha, 0 to 100 scale; for Oat, Wild plant response rating (0 to 100 scale): 125 g ai/ha, 0 = no effect, 100 = complete control
Excerpt: as §1, §2

[6] = system: palmer (palmer amaranth, palmer pigweed, Amaranthus palmeri); test: as above; conditions: 10 days; for Amaranth, Palmer (Pigweed, Palmer) plant response rating: 31 g ai/ha, 0 to 100 scale; for Amaranth, Palmer plant response rating (0 to 100 scale): 125 g ai/ha, 0 = no effect, 100 = complete control
Excerpt: as §1, §2

[7] = system: ragweed (common ragweed, Ambrosia artemisiifolia); test: as above; conditions: 10 days; for Ragweed plant response rating: 31 g ai/ha, 0 to 100 scale; for Ragweed plant response rating (0 to 100 scale): 125 g ai/ha, 0 = no effect, 100 = complete control
Excerpt: as §1, §2

[8] = system: ryegrass, Italian (italian ryegrass, Lolium multiflorum); test: as above; conditions: 10 days; for Ryegrass, Italian plant response rating: 31 g ai/ha, 0 to 100 scale; for Ryegrass, Italian plant response rating (0 to 100 scale): 125 g ai/ha, 0 = no effect, 100 = complete control
Excerpt: as §1, §2

soybean (Glycine max) [9] = test: as above; conditions: 10 days; for Soybean plant response rating: 31 g ai/ha, 0 to 100 scale; for Soybean plant response rating (0 to 100 scale): 125 g ai/ha, 0 = no effect, 100 = complete control
Excerpt: as §1, §2

[10] = system: wheat (Triticum aestivum); test: as above; conditions: 10 days; for Wheat plant response rating: 31 g ai/ha, 0 to 100 scale; for Wheat plant response rating (0 to 100 scale): 125 g ai/ha, 0 = no effect, 100 = complete control
Excerpt: as §1, §2

[11] = system: barnyardgrass (Echinochloa crus-galli); test: Test A postemergence application, visual injury rating 0-100; conditions: Postemergence
Excerpt: as §1, §2

[12] = system: blackgrass (Alopecurus myosuroides); test: as above; conditions: Postemergence
Excerpt: as §1, §2

corn (Zea mays) [13] = test: as above; conditions: Postemergence
Excerpt: as §1, §2

[14] = system: galium (catchweed bedstraw, Galium aparine); test: as above; conditions: Postemergence
Excerpt: as §1, §2

[15] = system: horseweed (Erigeron canadensis); test: as above; conditions: Postemergence
Excerpt: as §1, §2

kochia (Bassia scoparia) [16] = test: as above; conditions: Postemergence
Excerpt: as §1, §2

[17] = system: oat, wild (wild oat, Avena fatua); test: as above; conditions: Postemergence
Excerpt: as §1, §2

[18] = system: palmer (palmer amaranth, palmer pigweed, Amaranthus palmeri); test: as above; conditions: Postemergence
Excerpt: as §1, §2

[19] = system: ragweed (common ragweed, Ambrosia artemisiifolia); test: as above; conditions: Postemergence
Excerpt: as §1, §2

[20] = system: ryegrass, Italian (italian ryegrass, Lolium multiflorum); test: as above; conditions: Postemergence
Excerpt: as §1, §2

soybean (Glycine max) [21] = test: as above; conditions: Postemergence
Excerpt: as §1, §2

[22] = system: wheat (Triticum aestivum); test: as above; conditions: Postemergence
Excerpt: as §1, §2

[23] = 31 g ai/ha, greenhouse 10 days, 0 no effect, 100 complete control
[24] = 125 g ai/ha, 10 days, 0 is no effect, 100 is complete control

CCS(=O)(=O)NC(=O)C1C=CC(NC(=O)C2(C)CN(c3cc(Cl)cc(Cl)c3)C(=O)O2)C1 (stereo not shown) [Compound 83]
Barnyardgrass plant response rating [1]: 30
Barnyardgrass plant response rating (0 to 100 scale) [1]: 70
Blackgrass plant response rating [2]: 0
Blackgrass plant response rating (0 to 100 scale) [2]: 40
Corn plant response rating (corn (Zea mays) [3]): 0
Corn plant response rating (0 to 100 scale) (corn (Zea mays) [3]): 60
Kochia plant response rating (kochia (Bassia scoparia) [4]): 0
Kochia plant response rating (0 to 100 scale) (kochia (Bassia scoparia) [4]): 90
Oat, Wild plant response rating [5]: 0
Oat, Wild plant response rating (0 to 100 scale) [5]: 60
Amaranth, Palmer (Pigweed, Palmer) plant response rating [6]: 70
Amaranth, Palmer plant response rating (0 to 100 scale) [6]: 100
Ragweed plant response rating [7]: 0
Ragweed plant response rating (0 to 100 scale) [7]: 20
Ryegrass, Italian plant response rating [8]: 60
Ryegrass, Italian plant response rating (0 to 100 scale) [8]: 80
Soybean plant response rating (soybean (Glycine max) [9]): 40
Soybean plant response rating (0 to 100 scale) (soybean (Glycine max) [9]): 10
Wheat plant response rating [10]: 0
Wheat plant response rating (0 to 100 scale) [10]: 60
Barnyardgrass plant response rating (0 to 100 scale) [11, 23]: 90
Barnyardgrass plant response rating (0 to 100 scale) [11, 24]: 90
Blackgrass plant response rating (0 to 100 scale) [12, 23]: 60
Blackgrass plant response rating (0 to 100 scale) [12, 24]: 90
Corn plant response rating (0 to 100 scale) (corn (Zea mays) [13]; [23]): 20
Corn plant response rating (0 to 100 scale) (corn (Zea mays) [13]; [24]): 90
Galium plant response rating (0 to 100 scale) [14, 23]: 80
Galium plant response rating (0 to 100 scale) [14, 24]: 80
Horseweed plant response rating (0 to 100 scale) [15, 23]: 20
Horseweed plant response rating (0 to 100 scale) [15, 24]: 70
Kochia plant response rating (0 to 100 scale) (kochia (Bassia scoparia) [16]; [23]): 70
Kochia plant response rating (0 to 100 scale) (kochia (Bassia scoparia) [16]; [24]): 70
Oat, Wild plant response rating (0 to 100 scale) [17, 23]: 80
Oat, Wild plant response rating (0 to 100 scale) [17, 24]: 90
Amaranth, Palmer / Pigweed, Palmer plant response rating (0 to 100 scale) [18, 23]: 80
Amaranth, Palmer / Pigweed, Palmer plant response rating (0 to 100 scale) [18, 24]: 90
Ragweed plant response rating (0 to 100 scale) [19, 23]: 60
Ragweed plant response rating (0 to 100 scale) [19, 24]: 80
Ryegrass, Italian plant response rating (0 to 100 scale) [20, 23]: 60
Ryegrass, Italian plant response rating (0 to 100 scale) [20, 24]: 70
Soybean plant response rating (0 to 100 scale) (soybean (Glycine max) [21]; [23]): 20
Soybean plant response rating (0 to 100 scale) (soybean (Glycine max) [21]; [24]): 60
Wheat plant response rating (0 to 100 scale) [22, 23]: 90
Wheat plant response rating (0 to 100 scale) [22, 24]: 90

CC1(C(=O)NC2C=CC(C(=O)NS(=O)(=O)C3CC3)C2)CN(c2cc(Cl)cc(Cl)c2)C(=O)O1 (stereo not shown) [Compound 85]
Barnyardgrass plant response rating [1]: 20
Barnyardgrass plant response rating (0 to 100 scale) [1]: 90
Blackgrass plant response rating [2]: 0
Blackgrass plant response rating (0 to 100 scale) [2]: 20
Corn plant response rating (corn (Zea mays) [3]): 0
Corn plant response rating (0 to 100 scale) (corn (Zea mays) [3]): 30
Kochia plant response rating (kochia (Bassia scoparia) [4]): 20
Kochia plant response rating (0 to 100 scale) (kochia (Bassia scoparia) [4]): 90
Oat, Wild plant response rating [5]: 20
Oat, Wild plant response rating (0 to 100 scale) [5]: 50
Amaranth, Palmer (Pigweed, Palmer) plant response rating [6]: 80
Amaranth, Palmer plant response rating (0 to 100 scale) [6]: 90
Ragweed plant response rating [7]: 30
Ragweed plant response rating (0 to 100 scale) [7]: 20
Ryegrass, Italian plant response rating [8]: 60
Ryegrass, Italian plant response rating (0 to 100 scale) [8]: 80
Soybean plant response rating (soybean (Glycine max) [9]): 0
Soybean plant response rating (0 to 100 scale) (soybean (Glycine max) [9]): 10
Wheat plant response rating [10]: 0
Wheat plant response rating (0 to 100 scale) [10]: 90
Barnyardgrass plant response rating (0 to 100 scale) [11, 23]: 90
Barnyardgrass plant response rating (0 to 100 scale) [11, 24]: 90
Blackgrass plant response rating (0 to 100 scale) [12, 23]: 60
Blackgrass plant response rating (0 to 100 scale) [12, 24]: 80
Corn plant response rating (0 to 100 scale) (corn (Zea mays) [13]; [23]): 20
Corn plant response rating (0 to 100 scale) (corn (Zea mays) [13]; [24]): 90
Galium plant response rating (0 to 100 scale) [14, 23]: 50
Galium plant response rating (0 to 100 scale) [14, 24]: 80
Horseweed plant response rating (0 to 100 scale) [15, 23]: 60
Horseweed plant response rating (0 to 100 scale) [15, 24]: 60
Kochia plant response rating (0 to 100 scale) (kochia (Bassia scoparia) [16]; [23]): 50
Kochia plant response rating (0 to 100 scale) (kochia (Bassia scoparia) [16]; [24]): 70
Oat, Wild plant response rating (0 to 100 scale) [17, 23]: 80
Oat, Wild plant response rating (0 to 100 scale) [17, 24]: 90
Amaranth, Palmer / Pigweed, Palmer plant response rating (0 to 100 scale) [18, 23]: 40
Amaranth, Palmer / Pigweed, Palmer plant response rating (0 to 100 scale) [18, 24]: 90
Ragweed plant response rating (0 to 100 scale) [19, 23]: 30
Ragweed plant response rating (0 to 100 scale) [19, 24]: 60
Ryegrass, Italian plant response rating (0 to 100 scale) [20, 23]: 60
Ryegrass, Italian plant response rating (0 to 100 scale) [20, 24]: 70
Soybean plant response rating (0 to 100 scale) (soybean (Glycine max) [21]; [23]): 40
Soybean plant response rating (0 to 100 scale) (soybean (Glycine max) [21]; [24]): 60
Wheat plant response rating (0 to 100 scale) [22, 23]: 80
Wheat plant response rating (0 to 100 scale) [22, 24]: 90
